Laboratory results as given in PMC4057605 (Journal of immunology (Baltimore, Md. : 1950), 2013).

How the values were obtained:
[1] = test system: HLA-B*44:02 monochain; set-up: species or system mouse (HLA-B*44:02 monochain transgenic, H-2 class I null); details: mouse, in vivo, sc
[2] = test system: HLA-B*44:02 monochain; set-up: species or system mouse (HLA-B*44:02 monochain transgenic, H-2 class I null); details: mouse, in vivo
[3] = test system: HLA-B*08:01 monochain; set-up: species or system mouse (HLA-B*08:01 monochain transgenic, H-2 class I null); details: mouse, in vivo
[4] = test system: HLA-B*08:01 monochain; set-up: species or system mouse (HLA-B*08:01 monochain transgenic, H-2 class I null); details: mouse, in vivo, sc
[5] = test system: HLA-A*01:03 monochain; details: mouse, in vivo, sc
[6] = test system: HLA-A*01:03 monochain; details: mouse, in vivo
[7] = test system: HLA-B*27:05 monochain; set-up: species or system mouse (HLA-B*27:05 monochain transgenic, H-2 class I null); details: mouse, in vivo
[8] = test system: HLA-B*27:05 monochain; set-up: species or system mouse (HLA-B*27:05 monochain transgenic, H-2 class I null); details: mouse, in vivo, sc

In the case of AENGWGFYF, the “CD8+ T cell IFN-γ responses after peptide immunization” value [1] is reported as 60/41/29/12/9 Spots/10^6 Cells and the “CD8+ T cell IFN-γ responses after DNA immunization” value [2] is reported as 91/63/46/0 Spots/10^6 Cells.
For WLKIKRDYL, the “CD8+ T cell IFN-γ responses after DNA immunization” value [3] was 327/46/39/21/21/11 Spots/10^6 Cells and the “CD8+ T cell IFN-γ responses after peptide immunization” value [4] was 524/103/97/74/64/0 Spots/10^6 Cells.
FEDLRVLSF was tested, and the “CD8+ T cell IFN-γ responses after peptide immunization” value [1] was 167/61/30/17/8 Spots/10^6 Cells and the “CD8+ T cell IFN-γ responses after DNA immunization” value [2] was 66/44/0/0 Spots/10^6 Cells.
For EADPTGHSY, the “CD8+ T cell IFN-γ responses after peptide immunization” value [5] was 287/212/123/27 Spots/10^6 Cells and the “CD8+ T cell IFN-γ responses after DNA immunization” value [6] was 118/91/86/38 Spots/10^6 Cells.
LRGKWQRRYR was tested, and the “CD8+ T cell IFN-γ responses after DNA immunization” value [7] was 221/213/189/13 Spots/10^6 Cells and the “CD8+ T cell IFN-γ responses after peptide immunization” value [8] was 113/61/54/23 Spots/10^6 Cells.
For SRYWAIRTR, the “CD8+ T cell IFN-γ responses after DNA immunization” value [7] was 917/890/411/241 Spots/10^6 Cells and the “CD8+ T cell IFN-γ responses after peptide immunization” value [8] was 567/459/110/0 Spots/10^6 Cells.
For VSDGGPNLY, the “CD8+ T cell IFN-γ responses after peptide immunization” value [5] was 201/134/71/59 Spots/10^6 Cells and the “CD8+ T cell IFN-γ responses after DNA immunization” value [6] was 265/169/105 Spots/10^6 Cells.
With EENLLDFVRF the “CD8+ T cell IFN-γ responses after peptide immunization” value [1] was 54/28/27/20/0 Spots/10^6 Cells and the “CD8+ T cell IFN-γ responses after DNA immunization” value [2] was 134/87/0/0 Spots/10^6 Cells.
